“Also recorded” adds a separate entry of the source.
Legend:
DU-145 Prostate = assay: CellTiter-Glo proliferation assay, DU-145; format: cell-based; conditions: Homo sapiens, 72 hr incubation, read-out: IC50 (50% inhibition of proliferation)
Text: (§1) MDA-MB-231, HT-29, NCI-H460, NCI-H522, NCI-H69, GXF-209, HepG2, OVAR-3, PANC-1, DU-145, LNCAP, HL-60, K-562, and MOLT-4 cell lines were either obtained from the American Type Culture Collection (ATCC; Manassas, Va.), or from the National Cancer Institute (NCl; Frederick, Md.). RPM-1640 media, L-glutamine dipeptide (HyQ SG-200), and HEPES were obtained from Hyclone (Logan, Utah). Fetal bovine serum (FBS) was obtained from Sigma-Aldrich, (St. Louis, Mo.). DMSO was purchases from Fisher Chemicals (Fair Lawn, N.J.). The CellTiter-Glo Luminescent Cell Viability Assay reagent was obtained from Promega Corporation (Madison, Wis.). All tissue culture plasticware was obtained from Corning Incorporated (New York, N.Y.). Compound 100 and Compound 102 were provided by Lixte Biotechnology Holdings, Inc. (East Setauket, N.Y.). All cell lines were routinely cultured twice weekly in RPMI-1640 medium supplemented with 2 mM L-glutamine dipeptide, 10 mM HEPES, and 10% FBS. The adherent cell lines MDA-MB-231, HT-29, NCI-H460, NCI-H522, GXF-209, HepG2, OVAR-3, PANC-1, DU-145, and LNCAP cells were each seeded into two 96-well plates at 2,500 cells per well in a total volume of 50 uL and incubated in a 37 C humidified 5% CO2 cell culture incubator overnight. […] Luminescence was then recorded using the PerkinElmer Microbeta scintillation and luminescence counter (Trilux).

OVCAR-3 Ovary adenoca = assay: CellTiter-Glo proliferation assay, OVCAR-3; format: cell-based; conditions: Homo sapiens, 72 hr incubation, read-out: IC50 (50% inhibition of proliferation)
Text: as §1

HT-29 Colon = assay: CellTiter-Glo proliferation assay, HT-29; format: cell-based; conditions: Homo sapiens, 72 hr incubation, read-out: IC50 (50% inhibition of proliferation)
Text: as §1

[1] = tested on: medulloblastoma cell line DAOY; assay: Inhibition of growth of medulloblastoma cell line DAOY; format: cell-based
human cancer cell lines = assay: Proliferation of multiple human cancer cell lines (panel summary); format: cell-based; conditions: panel of Table 2
Text: as §1

normal mouse brain cells = assay: Viability of normal mouse brain cells
[2] = tested on: MOLT-4 Leukemia acute lympho; assay: CellTiter-Glo proliferation assay, MOLT-4; format: cell-based; conditions: Homo sapiens, 72 hr incubation, read-out: IC50 (50% inhibition of proliferation)
Text: as §1

SHSY-5Y xenografts = assay: Inhibition of SHSY-5Y xenografts; conditions: in vivo
MDA-MB-231 Breast = assay: CellTiter-Glo proliferation assay, MDA-MB-231; format: cell-based; conditions: Homo sapiens, 72 hr incubation, read-out: IC50 (50% inhibition of proliferation)
Text: as §1

[3] = tested on: HL-60 Leukemia promyelocytic; assay: CellTiter-Glo proliferation assay, HL-60; format: cell-based; conditions: Homo sapiens, 72 hr incubation, estimated from the data, no curve fit possible, read-out: IC50 (50% inhibition of proliferation)
Text: as §1

GXF-209 Stomach = assay: CellTiter-Glo proliferation assay, GXF-209; format: cell-based; conditions: Homo sapiens, 72 hr incubation, read-out: IC50 (50% inhibition of proliferation)
Text: as §1

PANC-1 Pancreas = assay: CellTiter-Glo proliferation assay, PANC-1; format: cell-based; conditions: Homo sapiens, 72 hr incubation, read-out: IC50 (50% inhibition of proliferation)
Text: as §1

NCI-H522 Lung adenoca = assay: CellTiter-Glo proliferation assay, NCI-H522; format: cell-based; conditions: Homo sapiens, 72 hr incubation, read-out: IC50 (50% inhibition of proliferation)
Text: as §1

[4] = tested on: K562 Leukemia chronic myelo; assay: CellTiter-Glo proliferation assay, K562; format: cell-based; conditions: Homo sapiens, 72 hr incubation, read-out: IC50 (50% inhibition of proliferation)
Text: as §1

NCI-H460 Lung large cell = assay: CellTiter-Glo proliferation assay, NCI-H460; format: cell-based; conditions: Homo sapiens, 72 hr incubation, read-out: IC50 (50% inhibition of proliferation)
Text: as §1

LNCAP Prostate = assay: CellTiter-Glo proliferation assay, LNCAP; format: cell-based; conditions: Homo sapiens, 72 hr incubation, read-out: IC50 (50% inhibition of proliferation)
Text: as §1

HepG2 Hepatoma = assay: CellTiter-Glo proliferation assay, HepG2; format: cell-based; conditions: Homo sapiens, 72 hr incubation, read-out: IC50 (50% inhibition of proliferation)
Text: as §1

NCI-H69 Lung small cell = assay: CellTiter-Glo proliferation assay, NCI-H69; format: cell-based; conditions: Homo sapiens, 72 hr incubation, read-out: IC50 (50% inhibition of proliferation)
Text: as §1

SMILES: CN(C)c1ccc(NC(=O)CCCCCNC(=O)c2ccccc2S)cc1 [Compound 206, 2-Mercapto-N-[5-(4-dimethylamino-3-yl-carbamoyl)pentyl]benzamide]
- melting point: 108 to 110 °C

SMILES: O=C(CCCCCNC(=O)c1ccccc1S)Nc1cccnc1 [Compound 205, 2-Mercapto-N-[5-(pyridin-3-ylcarbamoyl)pentyl]benzamide]
- IC50 (DU-145 Prostate): 50.2 µM
- IC50 (OVCAR-3 Ovary adenoca): 18.7 µM
- IC50 (HT-29 Colon): 47.6 µM
- activity against medulloblastoma cell line DAOY [1]: active
- activity against human cancer cell lines (human cancer cell lines): low uM range; also recorded: active against multiple human cancer cell lines at low micromolar concentrations
- cancer types against which most active (human cancer cell lines): most active against lung adenocarcinoma, stomach cancer, pancreatic cancer, and breast cancer
- viability of normal mouse brain cells compared to control (normal mouse brain cells): high viability
- IC50 [2]: 26.3 µM
- activity against the growth of SHSY-5Y xenografts (SHSY-5Y xenografts): shows activity
- IC50 (MDA-MB-231 Breast): 24.8 µM
- IC50 [3]: ~60 µM
- IC50 (GXF-209 Stomach): 22 µM
- IC50 (PANC-1 Pancreas): 11.9 µM
- IC50 (NCI-H522 Lung adenoca): 1.8 µM
- IC50 [4]: 58.3 µM
- IC50 (NCI-H460 Lung large cell): > 100 µM
- IC50 (LNCAP Prostate): 6.2 µM
- IC50 (HepG2 Hepatoma): 53.1 µM
- IC50 (NCI-H69 Lung small cell): 16.1 µM

— patent US8455688B2, “HDAC inhibitors” (Lixte Biotechnology, Inc., priority 2007, dated 2013)
